Patent publication US20140155376A1, “PYRROLOPYRAZINE KINASE INHIBITORS” (Hoffmann-La Roche Inc., priority 2010, published 2014)

Molecular target: T1, JAK3 (recombinant human kinase domain; h-jak3(810-1124)) (Homo sapiens, UniProt P52333)
T1 construct: h-jak3(810- 1124)-sf9-c; made in house; host or cells: Sf9 insect cells
Experiment: Determination of IC50 of Janus Kinase (JAK) inhibition: JAK3, radioactive end-point assay with 33P-ATP
Format: biochemical
Details: JAK3 kinase domain; ATP 1.5 uM, peptide 50 uM, 20 minutes, room temperature, 10% DMSO; read-out: Ic50 h-jak3(810-1124)-sf9-c:no additive

T1 sequence (P52333 810-1124): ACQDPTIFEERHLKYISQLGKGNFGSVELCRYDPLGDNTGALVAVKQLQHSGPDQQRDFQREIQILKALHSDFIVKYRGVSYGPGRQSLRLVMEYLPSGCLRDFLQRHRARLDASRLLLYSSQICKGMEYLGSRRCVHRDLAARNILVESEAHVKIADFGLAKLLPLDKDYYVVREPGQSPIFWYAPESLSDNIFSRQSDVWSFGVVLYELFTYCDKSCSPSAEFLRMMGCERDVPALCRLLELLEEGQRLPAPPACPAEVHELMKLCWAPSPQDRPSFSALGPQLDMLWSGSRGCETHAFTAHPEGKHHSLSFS

SMILES	IC50 [nM]
C[C@@H](NC(=O)c1c[nH]c2ncc(C3CC3)nc12)C1(C#N)CCCCC1 [Example I-117, 2-Cyclopropyl-5H-pyrrolo[2,3-b]pyrazine-7-carboxylic acid [(R)-1-(1-cyano-cyclohexyl)-ethyl]-amide]	26.8
C=C(C)c1cnc2[nH]cc(C(=O)N[C@@H](C)C(C)(C)O)c2n1 [Example I-3, 2-Isopropenyl-5H-pyrrolo[2,3-b]pyrazine-7-carboxylic acid ((S)-2-hydroxy-1,2-dimethyl-propyl)-amide]	12.2
CCNC(=O)c1c[nH]c2ncc(Oc3ccc4c(c3)CCCC4)nc12 [Example I-260, 2-(5,6,7,8-Tetrahydro-naphthalen-2-yloxy)-5H-pyrrolo[2,3-b]pyrazine-7-carboxylic acid ethylamide]	1530
C[C@H](NC(=O)c1c[nH]c2ncc(-c3ccc(C(=O)N4CCC(C)(O)CC4)s3)nc12)C(C)(C)C [Example I-175, 2-[5-(4-Hydroxy-4-methyl-piperidine-1-carbonyl)-thiophen-2-yl]-5H-pyrrolo[2,3-b]pyrazine-7-carboxylic acid ((S)-1,2,2-trimethyl-propyl)-amide]	0.1
CCn1cc(-c2cnc3[nH]cc(C(=O)N[C@H](C)C(C)(C)O)c3n2)cn1 [Example I-99, 2-(1-Ethyl-1H-pyrazol-4-yl)-5H-pyrrolo[2,3-b]pyrazine-7-carboxylic acid ((R)-2-hydroxy-1,2-dimethyl-propyl)-amide]	6.61
CCn1cc(-c2cnc3[nH]cc(C(=O)N[C@@H](C)C4(O)CCCC4)c3n2)cn1 [Example I-138, 2-(1-Ethyl-1H-pyrazol-4-yl)-5H-pyrrolo[2,3-b]pyrazine-7-carboxylic acid [(S)-1-(1-hydroxy-cyclopentyl)-ethyl]-amide]	5.01
C[C@@H](NC(=O)c1c[nH]c2ncc(Oc3ccccc3)nc12)C1CCCCC1 [Example I-129, 2-Phenoxy-5H-pyrrolo[2,3-b]pyrazine-7-carboxylic acid ((R)-1-cyclohexyl-ethyl)-amide]	222
C[C@H](NC(=O)c1c[nH]c2ncc(-c3ccc(C(N)=O)s3)nc12)C(C)(C)C [Example I-215, 2-(5-Carbamoyl-thiophen-2-yl)-5H-pyrrolo[2,3-b]pyrazine-7-carboxylic acid ((S)-1,2,2-trimethyl-propyl)-amide]	0.21
CC(C)(C#N)C(NC(=O)c1c[nH]c2ncc(C3CC3)nc12)C1CC1 (stereo not shown) [Example I-81, 2-Cyclopropyl-5H-pyrrolo[2,3-b]pyrazine-7-carboxylic acid (2-cyano-1-cyclopropyl-2,2-dimethyl-ethyl)-amide]	16
CS(=O)(=O)N1CCCC(CNC(=O)c2c[nH]c3ncc(C4CC4)nc23)C1 (stereo not shown) [Example I-108, 2-Cyclopropyl-5H-pyrrolo[2,3-b]pyrazine-7-carboxylic acid (1-methanesulfonyl-piperidin-3-ylmethyl)-amide]	163
C[C@H](NC(=O)c1c[nH]c2ncc(C3CC3)nc12)[C@@](C)(O)C(F)(F)F [Example I-53, 2-Cyclopropyl-5H-pyrrolo[2,3-b]pyrazine-7-carboxylic acid ((1S,2R)-3,3,3-trifluoro-2-hydroxy-1,2-dimethyl-propyl)-amide]	8.38
CCNC(=O)c1c[nH]c2ncc(Oc3cccc(OC)c3)nc12 [Example I-264, 2-(3-Methoxy-phenoxy)-5H-pyrrolo[2,3-b]pyrazine-7-carboxylic acid ethylamide]	810
CC(C)NC(=O)c1c[nH]c2ncc(Oc3ccc4c(c3)[C@@H](O)CC4)nc12 [Example I-304, 2-((S)-3-Hydroxy-indan-5-yloxy)-5H-pyrrolo[2,3-b]pyrazine-7-carboxylic acid isopropylamide]	155
CC(C)NC(=O)c1c[nH]c2ncc(Oc3ccc4c(c3)[C@H](NC=O)CC4)nc12 [Example I-301, 2-((R)-3-Formylamino-indan-5-yloxy)-5H-pyrrolo[2,3-b]pyrazine-7-carboxylic acid isopropylamide]	118
C[C@H](NC(=O)c1c[nH]c2ncc(-c3ccc(C(=O)NCc4cccc(Cl)c4Cl)s3)nc12)C(C)(C)C [Example I-186, 2-[5-(2,3-Dichloro-benzylcarbamoyl)-thiophen-2-yl]-5H-pyrrolo[2,3-b]pyrazine-7-carboxylic acid ((S)-1,2,2-trimethyl-propyl)-amide]	0.46
CC(Cc1ccccn1)NC(=O)c1ccc(-c2cnc3[nH]cc(C(=O)N[C@@H](C)C(C)(C)C)c3n2)s1 (stereo partly drawn) [Example I-176, 2-[5-(1-Methyl-2-pyridin-2-yl-ethylcarbamoyl)-thiophen-2-yl]-5H-pyrrolo[2,3-b]pyrazine-7-carboxylic acid ((S)-1,2,2-trimethyl-propyl)-amide]	0.46
Cc1ncccc1Oc1cnc2[nH]cc(C(=O)NC(C)C)c2n1 [Example I-280, 2-(2-Methyl-pyridin-3-yloxy)-5H-pyrrolo[2,3-b]pyrazine-7-carboxylic acid isopropylamide]	3980
C[C@H](NC(=O)c1c[nH]c2ncc(-c3ccc(C(=O)NCc4c(F)cccc4Cl)s3)nc12)C(C)(C)C [Example I-189, 2-[5-(2-Chloro-6-fluoro-benzylcarbamoyl)-thiophen-2-yl]-5H-pyrrolo[2,3-b]pyrazine-7-carboxylic acid ((S)-1,2,2-trimethyl-propyl)-amide]	0.6
CC(C)NC(=O)c1c[nH]c2ncc(Oc3ccccc3OC(F)(F)F)nc12 [Example I-253, 2-(2-Trifluoromethoxy-phenoxy)-5H-pyrrolo[2,3-b]pyrazine-7-carboxylic acid isopropylamide]	2170
Cc1ccc(CNC(=O)c2ccc(-c3cnc4[nH]cc(C(=O)N[C@@H](C)C(C)(C)C)c4n3)s2)o1 [Example I-193, 2-{5-[(5-Methyl-furan-2-ylmethyl)-carbamoyl]-thiophen-2-yl}-5H-pyrrolo[2,3-b]pyrazine-7-carboxylic acid ((S)-1,2,2-trimethyl-propyl)-amide]	0.42
CS(=O)(=O)N1CCC(CNC(=O)c2c[nH]c3ncc(C4CC4)nc23)C1 (stereo not shown) [Example I-109, 2-Cyclopropyl-5H-pyrrolo[2,3-b]pyrazine-7-carboxylic acid (1-methanesulfonyl-pyrrolidin-3-ylmethyl)-amide]	231
CC(NC(=O)c1c[nH]c2ncc(C3CC3)nc12)C1CCOCC1 (stereo not shown) [Example I-85, 2-Cyclopropyl-5H-pyrrolo[2,3-b]pyrazine-7-carboxylic acid [1-(tetrahydro-pyran-4-yl)-ethyl]-amide]	72.5
C[C@H](NC(=O)c1c[nH]c2ncc(-c3cn(-c4cccc(C(C)(C)C)c4)cn3)nc12)C(C)(C)C [Example I-153, 2-[1-(3-tert-Butyl-phenyl)-1H-imidazol-4-yl]-5H-pyrrolo[2,3-b]pyrazine-7-carboxylic acid ((S)-1,2,2-trimethyl-propyl)-amide]	75.4

Further molecules by falling IC50, results first:

IC50 [nM]	SMILES
4590	CCNC(=O)c1c[nH]c2ncc(Oc3cccc(C(C)C)c3)nc12 [Example I-250, 2-(3-Isopropyl-phenoxy)-5H-pyrrolo[2,3-b]pyrazine-7-carboxylic acid ethylamide]
1270	CCNC(=O)c1c[nH]c2ncc(Oc3ccc4c(c3)[C@H](NC(C)=O)CC4)nc12 [Example I-271, 2-((R)-3-Acetylamino-indan-5-yloxy)-5H-pyrrolo[2,3-b]pyrazine-7-carboxylic acid ethylamide]
262	COC[C@@H](NC(=O)c1c[nH]c2ncc(C3CC3)nc12)C(C)(C)C [Example I-65, 2-Cyclopropyl-5H-pyrrolo[2,3-b]pyrazine-7-carboxylic acid ((S)-1-methoxymethyl-2,2-dimethyl-propyl)-amide]
143	CC(CO)CNC(=O)c1c[nH]c2ncc(C3CC3)nc12 (stereo not shown) [Example I-69, 2-Cyclopropyl-5H-pyrrolo[2,3-b]pyrazine-7-carboxylic acid (3-hydroxy-2-methyl-propyl)-amide]
116	C[C@H](NC(=O)c1c[nH]c2ncc(C3CC3)nc12)[C@](C)(O)CC1CC1 [Example I-48, 2-Cyclopropyl-5H-pyrrolo[2,3-b]pyrazine-7-carboxylic acid ((1S,2R)-3-cyclopropyl-2-hydroxy-1,2-dimethyl-propyl)-amide]
54.3	CC[C@H](NC(=O)c1c[nH]c2ncc(C3CC3)nc12)C(C)(C)O [Example I-29, 2-Cyclopropyl-5H-pyrrolo[2,3-b]pyrazine-7-carboxylic acid ((S)-1-ethyl-2-hydroxy-2-methyl-propyl)-amide]
27.1	CC(C)(O)[C@H](NC(=O)c1c[nH]c2ncc(C3CC3)nc12)C1CC1 [Example I-74, 2-Cyclopropyl-5H-pyrrolo[2,3-b]pyrazine-7-carboxylic acid ((R)-1-cyclopropyl-2-hydroxy-2-methyl-propyl)-amide]
20.2	CC(=O)N[C@@H]1CCc2ccc(Oc3cnc4[nH]cc(C(=O)N[C@@H](C)C(C)(C)C)c4n3)cc21 [Example I-287, 2-((R)-3-Acetylamino-indan-5-yloxy)-5H-pyrrolo[2,3-b]pyrazine-7-carboxylic acid ((S)-1,2,2-trimethyl-propyl)-amide]
9.99	CC(NC(=O)c1c[nH]c2ncc(C3CC3)nc12)C1CCCC1 (stereo not shown) [Example I-95, 2-Cyclopropyl-5H-pyrrolo[2,3-b]pyrazine-7-carboxylic acid (1-cyclopentyl-ethyl)-amide]
0.56	COc1ccc(OC)c(CNC(=O)c2ccc(-c3cnc4[nH]cc(C(=O)N[C@@H](C)C(C)(C)C)c4n3)s2)c1 [Example I-204, 2-[5-(2,5-Dimethoxy-benzylcarbamoyl)-thiophen-2-yl]-5H-pyrrolo[2,3-b]pyrazine-7-carboxylic acid ((S)-1,2,2-trimethyl-propyl)-amide]
0.16	C[C@H](NC(=O)c1c[nH]c2ncc(-c3ccc(C(=O)NC4CCS(=O)(=O)CC4)s3)nc12)C(C)(C)C [Example I-212, 2-[5-(1,1-Dioxo-hexahydro-1λ^6-thiopyran-4-ylcarbamoyl)-thiophen-2-yl]-5H-pyrrolo[2,3-b]pyrazine-7-carboxylic acid ((S)-1,2,2-trimethyl-propyl)-amide]
